Experiment: Inhibition of human CYP1A1 expressed in HEK293 cells assessed as reduction in CYP1A1 mediated B[alpha]P-7,8- dihydrodiol induced-toxicity by measuring EC50 at 3 times of IC50 concentration by MTT assay (Rvb = 1.4 +/ 0.4 uM)

In order of rising EC50:
1. COc1c(C(=O)/C=C(\O)c2ccccc2)ccc2occc12 [Pongamol]  10.2 µM
2. O=c1cc(-c2ccccc2)oc2c1ccc1occc12 [LANCEOLATIN B]  14.4 µM
3. COc1c(-c2ccc3c(c2)OCO3)oc2c(ccc3occc32)c1=O [Pongapin]  14.8 µM

— BindingDB's records for doi:10.1016/j.bmc.2018.11.013 (Csir-Indian Institute of Integrative Medicine, 2018)
